18 compounds from ChEMBL document CHEMBL6074624, “FDA-approved small molecule kinase inhibitors for cancer treatment (2001-2015): Medical indication, structural optimization, and binding mode Part I” (Bioorg Med Chem, 2024) can be followed below.

pIC50, pKi: −log10 of the molar value. Converted amounts (≈) assume the structure as drawn.

Usually pIC50 stands for −log10 of the IC50, conventionally taken in molar units. In general, half-life refers to how long it takes for the measured level to halve. High values mean slow loss, low ones fast loss. A word on the pKi: it is the negative decadic logarithm of the Ki, by convention in mol/L. As usually defined, the IC50 is the concentration at which inhibition is half-maximal. For orientation: GI50 means the concentration giving 50% growth inhibition. As usually defined, the solubility is how much of the substance goes into solution per volume. Read a high solubility as a readily soluble substance.

In one data set the test system is A549. The experiment in a line: cells. The following applies: Homo sapiens, A549, 72 h.
Data set [1] deals with Cyclin-dependent kinase 2 (Homo sapiens, UniProt P24941). The experiment in a line: Inhibition of CDK2 (unknown origin).
Data set [2] has as its target Epidermal growth factor receptor (Homo sapiens, UniProt P00533, L858R/T790M). The experiment in a line: Inhibition of EGFR L858R/T790M (unknown origin).
Data set [3] concerns NCI-H1975. The experiment in a line: Antiproliferative activity against human NCI-H1975 cells assessed as reduction in cell viability after 24 hrs by MTT assay. In kind it is functional, cell-based. The note with it: NCI-H1975, 24 h. (Formazan colour is commonly taken as a measure of viable cells.)
The test system of data set [4] is PC-9. The experiment in a line: Antiproliferative activity against human PC-9 cells assessed as reduction in cell growth incubated for 72 hrs by MTT assay. In kind it is functional, cell-based. The following applies: PC-9, 72 h.
Data set [5] is described as follows: Inhibition of PDGFR (unknown origin) in NIH3T3 cells. In kind it is cell-based, Homo sapiens.
Data set [6] is described as follows: Half life in mouse at 10 mg/kg, po by LC-MS/MS analysis. In kind it is ADME, organism-based. The following applies: in vivo.
In data set [7] the target is T1, Tyrosine-protein kinase Lck (Homo sapiens, UniProt P06239). The experiment in a line: Inhibition of human LCK.
T1 sequence (P06239 whole entry): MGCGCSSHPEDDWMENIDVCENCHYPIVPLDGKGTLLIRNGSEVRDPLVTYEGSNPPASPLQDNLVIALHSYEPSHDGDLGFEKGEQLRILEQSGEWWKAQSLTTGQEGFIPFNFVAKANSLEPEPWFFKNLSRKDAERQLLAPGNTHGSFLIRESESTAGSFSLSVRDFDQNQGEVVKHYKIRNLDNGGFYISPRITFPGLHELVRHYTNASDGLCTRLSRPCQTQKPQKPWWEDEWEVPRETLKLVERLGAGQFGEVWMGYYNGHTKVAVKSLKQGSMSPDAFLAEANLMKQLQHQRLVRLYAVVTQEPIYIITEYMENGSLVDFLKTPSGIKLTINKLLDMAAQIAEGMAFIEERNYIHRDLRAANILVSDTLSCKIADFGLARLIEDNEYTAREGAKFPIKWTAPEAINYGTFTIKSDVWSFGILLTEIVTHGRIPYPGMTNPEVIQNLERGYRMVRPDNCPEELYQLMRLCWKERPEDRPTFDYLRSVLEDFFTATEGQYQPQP
Data set [8] has as its target Epidermal growth factor receptor (Homo sapiens, UniProt P00533).
The next data set concerns KB. The experiment in a line: cells. The following applies: Homo sapiens, 72 h.
For data set [9], the target named is Mast/stem cell growth factor receptor Kit (Homo sapiens, UniProt P10721). The experiment in a line: Inhibition of c-Kit (unknown origin).
In data set [10] the target is Proto-oncogene tyrosine-protein kinase Src (Homo sapiens, UniProt P12931). The experiment in a line: Inhibition of SRC (unknown origin).
Chain of Proto-oncogene tyrosine-protein kinase Src (P12931 2-536 limits assumed): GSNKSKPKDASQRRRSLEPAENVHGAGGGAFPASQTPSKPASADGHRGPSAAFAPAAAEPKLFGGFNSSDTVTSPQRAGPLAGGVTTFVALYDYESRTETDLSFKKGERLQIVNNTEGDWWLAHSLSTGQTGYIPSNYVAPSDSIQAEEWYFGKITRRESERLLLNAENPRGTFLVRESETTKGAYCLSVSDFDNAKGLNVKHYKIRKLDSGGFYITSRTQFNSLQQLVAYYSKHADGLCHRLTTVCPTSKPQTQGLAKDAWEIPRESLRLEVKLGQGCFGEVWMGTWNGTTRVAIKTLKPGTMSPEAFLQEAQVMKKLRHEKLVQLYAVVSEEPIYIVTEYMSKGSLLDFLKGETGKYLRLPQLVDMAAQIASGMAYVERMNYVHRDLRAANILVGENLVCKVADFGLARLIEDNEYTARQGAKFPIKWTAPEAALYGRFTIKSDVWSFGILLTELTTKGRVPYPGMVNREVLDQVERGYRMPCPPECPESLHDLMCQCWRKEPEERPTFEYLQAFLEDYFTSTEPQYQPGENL
Data set [11] concerns the target Tyrosine-protein kinase Yes (Homo sapiens, UniProt P07947). The experiment in a line: Inhibition of YES1 (unknown origin).
Another data set deals with PC-3. The experiment in a line: Antiproliferative activity against human PC-3 cells. In kind it is functional, cell-based.
In another data set the test system is MDA-MB-231. The experiment in a line: Antiproliferative activity against human MDA-MB-231 cells. In kind it is functional, cell-based.
For data set [12], the target named is T1, Tyrosine-protein kinase Lck.
Data set [13] addresses Vascular endothelial growth factor receptor 2 (Homo sapiens, UniProt P35968). The experiment in a line: Binding affinity to VEGFR-2 (unknown origin) assessed as inhibition constant.
Data set [14] can be described thus: Cytotoxicity against HUVEC cells assessed as reduction in cell viability after 72 hrs by CellTiter-Glo assay. In kind it is toxicity, cell-based. The note with it: human. Background: In ATP-based viability assays light output follows the ATP content of the culture.
A further data set deals with ACHN. The experiment in a line: Antiproliferative activity against human ACHN cells assessed as reduction in cell viability measured after 48 hrs by SRB assay. In kind it is functional, cell-based. In general terms: Sulforhodamine B stains cellular protein and so reports cell mass.
For a further data set, the system named is HT-29. The experiment in a line: Antiproliferative activity against human HT-29 cells assessed as reduction in cell viability after 72 hrs by MTS assay. In kind it is functional, cell-based. The following applies: HT-29, 72 h.
Data set [15] in a line: Anticancer activity against human NCI-H1975 cells harboring EGFR L858R/T790M mutant assessed as reduction in cell viability measured after 72 hrs by MTT assay. In kind it is functional, cell-based. The following applies: NCI-H1975, 72 h.
Data set [16] has as its system PC-9. The experiment in a line: Antiproliferative activity against human PC-9 cells harboring EGFR L858R mutant assessed as reduction in cell viability measured after 72 hrs by SRB assay. In kind it is functional, cell-based. The following applies: PC-9, 72 h.
The test system of data set [17] is NCI-H1975. The experiment in a line: Growth inhibition of human NCI-H1975 cells. In kind it is functional.
For data set [18], the system named is PC-9. The experiment in a line: Growth inhibition of human PC-9 cells. In kind it is functional.
For another data set, the system named is Calu-3. The experiment in a line: Growth inhibition of human Calu-3 cells. In kind it is functional.
Data set [19] is described as follows: Aqueous solubility of compound at pH 7.4 by LC-MS/MS analysis. The note with it: buffer. In kind it is physicochemical.
In data set [20] the target is Voltage-gated inwardly rectifying potassium channel KCNH2 (Homo sapiens, UniProt Q12809). The experiment in a line: Inhibition of hERG. In kind it is toxicity.
Chain of Voltage-gated inwardly rectifying potassium channel KCNH2 (Q12809 whole entry): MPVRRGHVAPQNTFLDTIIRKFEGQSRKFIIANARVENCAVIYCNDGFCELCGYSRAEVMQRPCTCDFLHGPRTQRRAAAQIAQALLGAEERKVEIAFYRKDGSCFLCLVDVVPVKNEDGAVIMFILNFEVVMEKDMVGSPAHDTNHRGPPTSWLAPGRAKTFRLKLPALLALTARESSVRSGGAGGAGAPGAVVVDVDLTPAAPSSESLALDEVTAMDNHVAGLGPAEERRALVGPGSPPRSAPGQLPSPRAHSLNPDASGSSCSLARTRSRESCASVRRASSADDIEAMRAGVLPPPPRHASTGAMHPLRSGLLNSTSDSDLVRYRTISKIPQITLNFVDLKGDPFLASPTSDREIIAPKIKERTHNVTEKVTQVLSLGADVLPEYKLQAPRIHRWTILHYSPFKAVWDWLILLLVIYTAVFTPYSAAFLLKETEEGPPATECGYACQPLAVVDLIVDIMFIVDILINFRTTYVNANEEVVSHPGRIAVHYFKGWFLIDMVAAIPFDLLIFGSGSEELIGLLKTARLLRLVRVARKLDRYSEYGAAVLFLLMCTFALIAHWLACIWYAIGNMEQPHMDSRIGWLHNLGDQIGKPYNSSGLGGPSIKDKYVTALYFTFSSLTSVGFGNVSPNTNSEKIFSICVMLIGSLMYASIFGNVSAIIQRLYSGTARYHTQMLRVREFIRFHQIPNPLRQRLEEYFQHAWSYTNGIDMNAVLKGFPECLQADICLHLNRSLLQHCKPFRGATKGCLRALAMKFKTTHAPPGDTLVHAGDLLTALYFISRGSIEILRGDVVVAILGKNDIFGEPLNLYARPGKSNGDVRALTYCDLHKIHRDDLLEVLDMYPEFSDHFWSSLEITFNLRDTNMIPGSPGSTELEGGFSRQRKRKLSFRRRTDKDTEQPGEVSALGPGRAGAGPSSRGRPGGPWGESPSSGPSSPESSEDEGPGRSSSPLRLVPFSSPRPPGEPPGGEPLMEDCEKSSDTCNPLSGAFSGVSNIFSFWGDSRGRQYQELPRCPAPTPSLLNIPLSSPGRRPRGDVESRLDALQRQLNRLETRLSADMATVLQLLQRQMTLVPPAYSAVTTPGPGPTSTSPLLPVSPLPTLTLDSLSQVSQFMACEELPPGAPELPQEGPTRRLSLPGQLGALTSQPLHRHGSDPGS

Chain of Epidermal growth factor receptor (Homo sapiens, UniProt P00533, L858R/T790M) (P00533 25-1210 T790M/L858R limits assumed): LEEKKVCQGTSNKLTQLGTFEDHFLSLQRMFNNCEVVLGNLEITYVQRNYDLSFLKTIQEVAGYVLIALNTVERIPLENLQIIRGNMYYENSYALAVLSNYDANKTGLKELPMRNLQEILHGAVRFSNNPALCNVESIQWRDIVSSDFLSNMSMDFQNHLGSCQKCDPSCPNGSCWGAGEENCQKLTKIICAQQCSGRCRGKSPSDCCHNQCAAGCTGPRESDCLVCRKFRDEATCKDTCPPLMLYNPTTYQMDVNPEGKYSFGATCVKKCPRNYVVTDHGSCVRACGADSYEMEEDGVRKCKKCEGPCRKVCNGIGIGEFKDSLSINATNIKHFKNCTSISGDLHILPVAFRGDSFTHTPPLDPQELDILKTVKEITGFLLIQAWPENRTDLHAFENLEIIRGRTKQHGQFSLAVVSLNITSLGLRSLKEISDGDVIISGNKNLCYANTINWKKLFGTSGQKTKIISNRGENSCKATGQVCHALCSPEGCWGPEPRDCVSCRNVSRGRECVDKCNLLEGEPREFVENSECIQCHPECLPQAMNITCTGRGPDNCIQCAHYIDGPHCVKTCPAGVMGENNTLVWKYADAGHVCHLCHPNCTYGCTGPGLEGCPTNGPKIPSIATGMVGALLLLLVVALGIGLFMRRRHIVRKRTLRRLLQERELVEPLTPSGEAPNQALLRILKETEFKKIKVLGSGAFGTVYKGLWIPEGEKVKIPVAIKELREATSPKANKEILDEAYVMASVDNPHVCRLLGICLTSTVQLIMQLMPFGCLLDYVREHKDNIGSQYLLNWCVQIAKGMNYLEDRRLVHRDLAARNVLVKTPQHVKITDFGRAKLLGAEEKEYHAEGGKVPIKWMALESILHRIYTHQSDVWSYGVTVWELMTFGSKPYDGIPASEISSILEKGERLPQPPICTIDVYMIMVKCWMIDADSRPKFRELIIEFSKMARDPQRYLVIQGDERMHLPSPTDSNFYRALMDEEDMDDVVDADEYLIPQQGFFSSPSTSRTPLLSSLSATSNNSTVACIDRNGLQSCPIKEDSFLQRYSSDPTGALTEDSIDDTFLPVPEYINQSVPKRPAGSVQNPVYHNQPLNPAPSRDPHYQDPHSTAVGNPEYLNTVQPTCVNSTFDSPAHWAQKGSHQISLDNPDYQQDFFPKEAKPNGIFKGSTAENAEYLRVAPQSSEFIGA
Chain of Vascular endothelial growth factor receptor 2 (P35968 whole entry): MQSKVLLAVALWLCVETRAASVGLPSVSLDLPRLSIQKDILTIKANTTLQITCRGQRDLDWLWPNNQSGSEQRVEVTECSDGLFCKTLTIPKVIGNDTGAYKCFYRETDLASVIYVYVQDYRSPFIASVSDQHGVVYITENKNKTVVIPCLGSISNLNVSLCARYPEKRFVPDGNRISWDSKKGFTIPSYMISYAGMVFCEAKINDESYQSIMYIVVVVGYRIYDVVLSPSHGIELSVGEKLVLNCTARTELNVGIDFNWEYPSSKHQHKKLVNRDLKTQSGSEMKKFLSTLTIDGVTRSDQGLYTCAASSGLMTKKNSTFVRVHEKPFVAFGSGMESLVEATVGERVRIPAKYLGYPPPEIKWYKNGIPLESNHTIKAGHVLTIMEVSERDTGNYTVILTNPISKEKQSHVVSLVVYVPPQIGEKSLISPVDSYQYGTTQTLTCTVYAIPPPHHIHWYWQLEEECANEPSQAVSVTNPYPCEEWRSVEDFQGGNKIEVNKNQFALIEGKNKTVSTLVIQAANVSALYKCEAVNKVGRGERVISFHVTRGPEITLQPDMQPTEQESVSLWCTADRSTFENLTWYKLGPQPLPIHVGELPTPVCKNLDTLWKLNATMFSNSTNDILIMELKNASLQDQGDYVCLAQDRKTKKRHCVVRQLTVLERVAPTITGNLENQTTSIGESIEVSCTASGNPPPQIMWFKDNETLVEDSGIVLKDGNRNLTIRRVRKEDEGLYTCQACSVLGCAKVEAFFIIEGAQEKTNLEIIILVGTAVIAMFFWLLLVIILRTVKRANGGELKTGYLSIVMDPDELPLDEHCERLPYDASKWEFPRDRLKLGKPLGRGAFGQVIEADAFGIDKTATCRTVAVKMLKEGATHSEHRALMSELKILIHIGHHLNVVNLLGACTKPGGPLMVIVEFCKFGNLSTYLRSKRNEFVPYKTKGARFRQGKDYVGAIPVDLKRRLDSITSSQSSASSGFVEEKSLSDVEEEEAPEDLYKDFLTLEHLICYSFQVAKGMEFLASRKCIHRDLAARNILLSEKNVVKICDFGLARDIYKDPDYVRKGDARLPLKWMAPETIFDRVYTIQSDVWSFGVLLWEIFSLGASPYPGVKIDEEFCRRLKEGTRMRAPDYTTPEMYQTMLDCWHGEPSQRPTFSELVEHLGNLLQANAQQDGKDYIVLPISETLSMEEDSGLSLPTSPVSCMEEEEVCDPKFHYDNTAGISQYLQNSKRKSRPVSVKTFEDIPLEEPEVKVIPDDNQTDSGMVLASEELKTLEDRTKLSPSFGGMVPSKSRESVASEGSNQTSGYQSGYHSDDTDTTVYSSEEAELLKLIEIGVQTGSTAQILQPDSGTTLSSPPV

For `CC(Oc1cc(-c2cnn(C3CCNCC3)c2)cnc1N)c1c(Cl)ccc(F)c1Cl` (centres undefined), the pIC50 in the data set on A549 was 7.70.

As for `CCOC(=O)c1c(C)c2cnc(Nc3ccc(N4CCNCC4)cc3)nc2n(C2CCCC2)c1=O`, in data set [1], the pIC50 was less than 5.30.

Take `COc1cc(N2CCN(C(C)=O)CC2)ccc1Nc1ncc(Cl)c(-c2c[nH]c3ccccc23)n1`: the pIC50 in [2] is 7.00; in the data set with NCI-H1975 [3], 6.11.

Turning to `C=CC(=O)Nc1cccc(Nc2ncc(Cl)c(-c3c[nH]c4ccccc34)n2)c1`, the negative logarithm of the IC50 (pIC50) in the data set with NCI-H1975 [3] was 7.10; with PC-9 [4], 7.70.

For `C=CC(=O)Nc1ccc(OC)c(Nc2ncc(Cl)c(-c3c[nH]c4ccccc34)n2)c1`, the pIC50 is 7.22 in [2], 7.70 in the data set on NCI-H1975 [3] and 6.82 in the data set with PC-9 [4].

Compound `CCN(CC)CCNC(=O)c1c(C)[nH]c(/C=C2\C(=O)Nc3ccccc32)c1C` showed a pIC50 in data set [5] of 7.00.

In turn, `COc1cc2ncnc(Nc3ccc(F)c(Cl)c3)c2cc1OC` showed a half-life in data set [6] of 3 h.

In [7], `Cc1cccc(Cl)c1NC(=O)c1ccc2nc(Nc3cccc(NCCO)n3)sc2c1` had a pIC50 of 6.30.

Turning to `Cc1cccc(Nc2ncnc3ccc(N)cc23)c1`, the pIC50 in data set [8] was 7.30; in the data set with KB, 6.00.

Regarding `Cc1cc(Nc2ncc(C(=O)Nc3c(C)cccc3Cl)s2)nc(C)n1`, the pIC50 in [7] is 6.00; in [9], 8.30; in [10], 9.30; in data set [11], 9.30; in the data set with PC-3 it was 8.03; in the data set on MDA-MB-231, 7.92. In data set [12], this compound gave a pIC50 of 9.40.

The compound `CC(=O)c1c(C)c2cnc(Nc3ccc(N4CCNCC4)cc3)nc2n(C2CCCC2)c1=O` gave a pIC50 in data set [1] of 7.96.

Regarding `C(=C\c1n[nH]c2cc(Sc3ccccc3)ccc12)/c1ccccc1`, in data set [13], the pKi is 8.35.

Regarding `Cc1ccc2cc(NC(=O)c3ccccc3Sc3ccc4c(/C=C/c5ccccn5)n[nH]c4c3)ccc2n1`, the IC50 at 72 h in data set [14] was found to be 0.8 nM.

In the case of `COc1cc2ncnc(Nc3cccc(C)c3)c2cc1OC`, the half-life in data set [6] was 1 h. In addition, in the data set on KB, the pIC50 is 7.30.

For the compound `Cn1c(=O)cc(Nc2ccc(Br)cc2)c2c(=O)n(C3CC3)c(=O)n(-c3ccccc3)c21`, the pIC50 in the data set with ACHN is 5.90; in the data set on HT-29, 7.00.

On to `Cn1c(=O)cc(Nc2ccc(Br)cc2F)c2c(=O)n(C3CC3)c(=O)n(-c3ccccc3)c21`, for which the pIC50 in the data set on ACHN is 6.49; with HT-29, 7.82.

Regarding `C=CC(=O)Nc1cc(Nc2ncc(Cl)c(-c3cnn4ccccc34)n2)c(OC)cc1C(C)CCNC` (centres undefined), the pIC50 in data set [15] is 9.22; in the data set on PC-9 [16] it was 8.70; in data set [20] it was 5.17. For the same compound, the figures for the GI50 with NCI-H1975 [17], in the data set on PC-9 [18] and in the data set on Calu-3 were 3 nM, 4 nM and 180 nM, respectively. The concentration in solution in [19] (solubility) was 222 µM (≈ 112 µg/mL).

For `C=CC(=O)Nc1cc(Nc2ncc(Cl)c(-c3cnn4ccccc34)n2)c(OC)cc1C1CC[C@@H](N(C)C)C1` (some centres undefined), the pIC50 in data set [15] is 8.70; in the data set with PC-9 [16], 7.80; in data set [20], 5.25. Besides, the figures for the GI50 in the data set on NCI-H1975 [17], in the data set on PC-9 [18] and in the data set on Calu-3 were 7 nM, 10 nM and 380 nM, respectively. The same compound yielded a solubility in [19] of 28 µM (≈ 14.9 µg/mL).
